Reference: patent US6737383B1, “Herbicidal oxadiazolidines” (priority 1999, dated 2004)

Experiments:
[1] = tested on: bedstraw; test: Test B pre/postemergence bedstraw; format: in vivo, Galium aparine; settings: Preemergence
Procedure, shortened: (§1)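 Test chemicals in a non-phytotoxic solvent mixture with surfactant were sprayed preemergence onto planted seeds and postemergence onto plants 2 to 18 cm tall (1- to 4-leaf stage). After twelve to sixteen days in a greenhouse, injury was visually rated against untreated controls from 0 (no effect) to 10 (complete control).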

[2] = tested on: cocklebur; test: Test B pre/postemergence cocklebur; format: in vivo, Xanthium strumarium
Procedure, shortened: as §1

[3] = tested on: velvetleaf; test: Test B pre/postemergence velvetleaf; format: in vivo, Abutilon theophrasti
Procedure, shortened: as §1

[4] = tested on: morningglory; test: Test B pre/postemergence morningglory; format: in vivo, Ipomoea hederacea
Procedure, shortened: as §1

[5] = tested on: bamyardgrass; test: Test B flood test barnyardgrass; format: in vivo, Echinochloa crus-galli
Procedure, shortened: (§2)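 Read-out is a visual response score from 0 (no effect) to 10 (complete control), assigned by comparison with untreated controls. Treatment was applied at the 2-leaf stage, and plants stayed in the greenhouse for twelve to sixteen days before scoring.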

[6] = tested on: rice; test: Test B flood test rice; format: in vivo, Oryza sativa
Procedure, shortened: as §2

[7] = tested on: smallflower flatsedge; test: Test B flood test smallflower flatsedge; format: in vivo, Cyperus difformis
Procedure, shortened: as §2

[8] = tested on: blackgrass; test: Test B pre/postemergence blackgrass; format: in vivo, Alopecurus myosuroides
Procedure, shortened: as §1

[9] = tested on: duck salad; test: Test B flood test duck salad; format: in vivo, Heteranthera limosa
Procedure, shortened: as §2

[10] = tested on: surinam grass; test: Test B pre/postemergence surinam grass; format: in vivo, Brachiaria decumbens
Procedure, shortened: as §1

[11] = tested on: giant foxtail; test: Test B pre/postemergence giant foxtail; format: in vivo, Setaria faberii
Procedure, shortened: as §1

[12] = tested on: rape; test: Test B pre/postemergence rape; format: in vivo, Brassica napus
Procedure, shortened: as §1

[13] = tested on: sugar beet; test: Test B pre/postemergence sugar beet; format: in vivo, Beta vulgaris
Procedure, shortened: as §1

[14] = tested on: crabgrass; test: Test B pre/postemergence crabgrass; format: in vivo, Digitaria sanguinalis
Procedure, shortened: as §1

[15] = tested on: soybean; test: Test B pre/postemergence soybean; format: in vivo, Glycine max
Procedure, shortened: as §1

[16] = tested on: corn; test: Test B pre/postemergence corn; format: in vivo, Zea mays
Procedure, shortened: as §1

[17] = tested on: wheat; test: Test B pre/postemergence wheat; format: in vivo, Triticum aestivum
Procedure, shortened: as §1

[18] = tested on: pigweed; test: Test B pre/postemergence pigweed; format: in vivo, Amaranthus retroflexus
Procedure, shortened: as §1

[19] = tested on: wild oat; test: Test B pre/postemergence wild oat; format: in vivo, Avena fatua
Procedure, shortened: as §1

[20] = tested on: purple nutsedge; test: Test B pre/postemergence purple nutsedge; format: in vivo, Cyperus rotundus
Procedure, shortened: as §1

[21] = Postemergence, Rate 31 g/ha, visual rating, scale 0 to 10 (0 no effect, 10 complete control)
[22] = Postemergence, Rate 125 g/ha, scale 0 to 10, 0 is no effect, 10 is complete control
[23] = Postemergence, Rate 250 g/ha, scale 0 to 10, 0 is no effect, 10 is complete control
[24] = Preemergence, Rate 31 g/ha, visual rating, scale 0 to 10 (0 no effect, 10 complete control)
[25] = Preemergence, Rate 62 g/ha, scale 0 to 10 (0 no effect, 10 complete control)
[26] = Preemergence, Rate 125 g/ha, scale of 0 to 10 where 0 is no effect and 10 is complete control
[27] = Preemergence, Rate 250 g/ha, scale of 0 to 10 where 0 is no effect and 10 is complete control
[28] = Rate 62 g/ha, Postemergence, scale of 0 to 10 where 0 is no effect and 10 is complete control
[29] = Rate 31 g/ha, Pre-emergence section (flood test species), scale 0 to 10
[30] = Rate 62 g/ha, flood test species, Pre-emergence, visual evaluation after twelve to sixteen days
[31] = Rate 125 g/ha, under heading Pre-emergence, flood test species, visual evaluation after twelve to sixteen days
[32] = Rate 250 g/ha, Pre-emergence, flood-test species, scale 0 to 10, 0 is no effect, 10 is complete control

CC(C)N(C(=O)n1oc(=O)n([C@@H]2C[C@H]2C)c1=O)c1ccc(F)cc1 (relative stereo) [Compound 392]
Bedstraw plant response rating ([1]; Rate 31 g/ha, visual rating, scale 0 to 10 (0 no effect, 10 complete control)): 0
Plant response rating, Bedstraw ([1]; Rate 125 g/ha, scale of 0 to 10 where 0 is no effect and 10 is complete control): 8
Bedstraw plant response rating ([1]; Rate 250 g/ha, scale of 0 to 10 where 0 is no effect and 10 is complete control): 10
Cocklebur plant response rating [2, 21]: 0
Plant response rating, Cocklebur [2, 22]: 2
Plant response rating, Cocklebur [2, 23]: 2
Cocklebur plant response rating [2, 24]: 0
Plant response rating, Cocklebur [2, 25]: 0
Plant response rating, Cocklebur [2, 26]: 0
Cocklebur plant response rating [2, 27]: 0
Cocklebur plant response rating [2, 28]: 0
Velvetleaf plant response rating [3, 21]: 0
Plant response rating, Velvetleaf [3, 23]: 2
Plant response rating, Velvetleaf [3, 25]: 0
Plant response rating, Velvetleaf [3, 26]: 3
Velvetleaf plant response rating [3, 27]: 5
Velvetleaf plant response rating [3, 28]: 0
Morningglory plant response rating [4, 21]: 3
Plant response rating, Morningglory [4, 23]: 7
Plant response rating, Morningglory [4, 25]: 0
Plant response rating, Morningglory [4, 26]: 0
Morningglory plant response rating [4, 27]: 0
Morningglory plant response rating [4, 28]: 5
Barnyardgrass plant response rating [5, 29]: 0
Plant response rating, Barnyardgrass (0 to 10 scale, 0 is no effect, 10 is complete control) [5, 30]: 0
Barnyardgrass plant response rating (0 to 10 scale, 0 is no effect, 10 is complete control) [5, 31]: 0
Barnyardgrass plant response rating [5, 32]: 0
Rice plant response rating [6, 29]: 0
Plant response rating, Rice (0 to 10 scale, 0 is no effect, 10 is complete control) [6, 30]: 0
Rice plant response rating (0 to 10 scale, 0 is no effect, 10 is complete control) [6, 31]: 0
Rice plant response rating [6, 32]: 0
S. Flatsedge plant response rating [7, 29]: 0
Plant response rating, S. Flatsedge (0 to 10 scale, 0 is no effect, 10 is complete control) [7, 30]: 0
S. Flatsedge plant response rating (0 to 10 scale, 0 is no effect, 10 is complete control) [7, 31]: 0
S. Flatsedge plant response rating [7, 32]: 0
Blackgrass plant response rating [8, 21]: 7
Plant response rating, Blackgrass [8, 22]: 10
Plant response rating, Blackgrass [8, 23]: 10
Blackgrass plant response rating [8, 24]: 2
Plant response rating, Blackgrass [8, 25]: 6
Plant response rating, Blackgrass [8, 26]: 8
Blackgrass plant response rating [8, 27]: 10
Blackgrass plant response rating [8, 28]: 7
Ducksalad plant response rating [9, 29]: 0
Plant response rating, Ducksalad (0 to 10 scale, 0 is no effect, 10 is complete control) [9, 30]: 0
Ducksalad plant response rating (0 to 10 scale, 0 is no effect, 10 is complete control) [9, 31]: 0
Ducksalad plant response rating [9, 32]: 0
B. signalgrass plant response rating [10, 21]: 0
Plant response rating, B. signalgrass [10, 22]: 5
Plant response rating, B. signalgrass [10, 23]: 7
B. signalgrass plant response rating [10, 24]: 0
Plant response rating, B. signalgrass [10, 25]: 2
Plant response rating, B. signalgrass [10, 26]: 3
B. signalgrass plant response rating [10, 27]: 9
B. signalgrass plant response rating [10, 28]: 1
Giant foxtail plant response rating [11, 21]: 7
Plant response rating, Giant foxtail [11, 22]: 9
Plant response rating, Giant foxtail [11, 23]: 9
Giant foxtail plant response rating [11, 24]: 10
Plant response rating, Giant foxtail [11, 25]: 10
Plant response rating, Giant foxtail [11, 26]: 10
Giant foxtail plant response rating [11, 27]: 10
Giant foxtail plant response rating [11, 28]: 7
Rape plant response rating [12, 21]: 0
Plant response rating, Rape [12, 23]: 0
Plant response rating, Rape [12, 25]: 0
Plant response rating, Rape [12, 26]: 0
Rape plant response rating [12, 27]: 5
Rape plant response rating [12, 28]: 0
Sugarbeets plant response rating [13, 21]: 0
Plant response rating, Sugarbeets [13, 23]: 0
Plant response rating, Sugarbeets [13, 25]: 0
Plant response rating, Sugarbeets [13, 26]: 3
Sugarbeets plant response rating [13, 27]: 7
Sugarbeets plant response rating [13, 28]: 0
Crabgrass plant response rating [14, 21]: 1
Plant response rating, Crabgrass [14, 22]: 2
Plant response rating, Crabgrass [14, 23]: 7
Crabgrass plant response rating [14, 24]: 8
Plant response rating, Crabgrass [14, 25]: 10
Plant response rating, Crabgrass [14, 26]: 10
Crabgrass plant response rating [14, 27]: 10
Crabgrass plant response rating [14, 28]: 2
Soybean plant response rating [15, 21]: 1
Plant response rating, Soybean [15, 23]: 2
Plant response rating, Soybean [15, 25]: 0
Plant response rating, Soybean [15, 26]: 0
Soybean plant response rating [15, 27]: 0
Soybean plant response rating [15, 28]: 1
Corn plant response rating [16, 21]: 0
Plant response rating, Corn [16, 22]: 0
Plant response rating, Corn [16, 23]: 0
Corn plant response rating [16, 24]: 0
Plant response rating, Corn [16, 25]: 0
Plant response rating, Corn [16, 26]: 3
Corn plant response rating [16, 27]: 9
Corn plant response rating [16, 28]: 0
Wheat plant response rating [17, 21]: 0
Plant response rating, Wheat [17, 25]: 0
Plant response rating, Wheat [17, 26]: 3
Wheat plant response rating [17, 27]: 8
Wheat plant response rating [17, 28]: 0
Redroot pigweed plant response rating [18, 21]: 0
Plant response rating, Redroot pigweed [18, 23]: 6
Plant response rating, Redroot pigweed [18, 25]: 2
Plant response rating, Redroot pigweed [18, 26]: 7
Redroot pigweed plant response rating [18, 27]: 10
Redroot pigweed plant response rating [18, 28]: 0
Wild oats plant response rating [19, 21]: 0
Plant response rating, Wild oats [19, 25]: 2
Plant response rating, Wild oats [19, 26]: 9
Wild oats plant response rating [19, 27]: 10
Wild oats plant response rating [19, 28]: 0
Nutsedge plant response rating [20, 21]: 0
Plant response rating, Nutsedge [20, 23]: 0
Plant response rating, Nutsedge [20, 25]: 0
Plant response rating, Nutsedge [20, 26]: 0
Nutsedge plant response rating [20, 27]: 0
Nutsedge plant response rating [20, 28]: 0
